The text below walks through data of US20250376471A1, “CRYSTALLINE FORMS OF 2-[3-[4-AMINO-3-(2-FLUORO-4-PHENOXY-PHENYL)PYRAZOLO[3,4-D]PYRIMIDIN-1-YL]PIPERIDINE-1-CARBONYL]-4-METHYL-4-[4-(OXETAN-3-YL)PIPERAZIN-1-YL]PENT-2-ENENITRILE” (Principia Biopharma Inc., priority 2022, published 2025).

The nature of data set [1]: Comparative solubility in Milli-Q purified water (HPLC). The conditions noted are these: for pH: water, 24 hr. On the procedure: (§1) Using the stock solution, a dilution series for the purpose of HPLC quantitation was generated according to the following Table 8.
First, a quantity of test sample was placed in a 2-dram vial equipped with stir bar. […] In the second step, Milli-Q water was added to the vial under stirring followed by measuring the pH of the resulting suspension/solution. […] In each case, the sample was filtered through a 0.2 μm filter. The resulting solution was appropriately diluted to fall within the calibrated concentration range on HPLC. The sampling was repeated in identical fashion after 3 hr and 24 hr. After the last sample was taken, the pH was recorded again. The dissolved sample was determined by converting the recorded area on HPLC to concentration in mg/mL using the established calibration equation.

Data set [2] can be described thus: Comparative solubility in aqueous buffers (HPLC). The class given is physicochemical. As for the experimental part:
as §1
Next, the second step of this modified procedure involved adding a buffer (5 mL) to the vial under stirring followed by measuring the pH of the resulting suspension. In case the pH drifted by more than 0.1 unit from the target pH, 10 μL aliquots of 1M NaOH (aq.) were used to readjust the pH to the original value. […] As above in 9.2, the samples were filtered through a 0.2 μm filter, and the resulting solution was appropriately diluted to fall within the calibrated concentration range on HPLC. The sampling was repeated in an identical fashion after 3 hr and 24 hr and after the last sample was taken, the pH was recorded again. The dissolved sample was determined by converting the recorded area on HPLC to concentration in mg/mL using the established calibration equation.

Data set [3] in a line: Comparative grinding study (XRPD pre- and post-grinding). The class given is physicochemical. The conditions noted are these: 40 mg ground at 30 Hz for 30 min with steel ball bearing. As for the experimental part: The samples were each ground at 30 Hz for 30 min, then reanalyzed by XRPD.
The nature of data set [4]: Compression study (XRPD pre- and post-compression). It is filed as physicochemical. The conditions noted are these: 6 mm recess disc, 100 kg of pressure for 2 min. On the procedure:
The methyl paraben co-crystalline form of Compound (I) after drying in a vacuum oven was compressed into a 6 mm recess disc under 100 kg of pressure for 2 min.

Data set [5] in a line: Static storage analysis (XRPD pre- and post-storage). The conditions noted are these: stored for one week at 25° C. and 40° C. The class given is physicochemical. As for the experimental part:
Samples of methyl paraben co-crystalline form of Compound (I) (Example 10), after drying in a vacuum oven were stored for one week at 25° C. and 40° C.

Data set [6] can be described thus: Solubility of methyl paraben co-crystal in pH 4.5 and 6.8 buffer (HPLC). It is filed as physicochemical. As for the experimental part: The sample was suspended in 1.5 mL media for a maximum anticipated concentration of Ca. […] The resulting suspensions were then shaken at 25° C./750 rpm for 24 hr. After 1 hr, 3 hr and 24 hr of equilibration, 0.5 mL of sample was aliquoted, the appearance was noted, and the pH of the saturated solution was measured. Samples were then centrifuged at 13,400 rpm for 2 min. Supernatant was used for HPLC analysis. Samples suspended in pH 4.5 buffer were diluted 1:1 (1- and 3-hr samples) and 1:8 (24 hr samples) with pH 4.5 buffer. Samples suspended in pH 6.8 buffer were analyzed undiluted. […] Different volumes of the standard diluted and undiluted sample solutions were injected.

Data set [7] can be described thus: Hygroscopicity (GVS analysis) and solid-state properties of methyl paraben co-crystal. The class given is physicochemical. The source says:
The co-crystal is also readily prepared from anti-solvent addition and generates a good yield.

Data set [8] in a line: Visual solubility of Form B crystal in common solvents at RT. The class given is physicochemical. Particulars: organic solvent or mixture, thermodynamic from solid, visually estimated. The text has this: The solubility was visually estimated in 12 common solvents at RT.
Setting [9] is: pH 4.5 buffer, 1 hour, 25° C., single sample.

In brackets after ≈: the same amount, converted by molar mass. Several values for one entry are separate records, joined by “and”; a condition that tells them apart may be missing. Equal entries are not always repeated.

In the case of `CC(C)(C=C(C#N)C(=O)N1CCCC(n2nc(-c3ccc(Oc4ccccc4)cc3F)c3c(N)ncnc32)C1)N1CCN(C2COC2)CC1` (centres unmarked) [Compound (I) amorphous, 2-[3-[4-amino-3-(2-fluoro-4-phenoxy-phenyl)pyrazolo[3,4-d]pyrimidin-1-yl]piperidine-1-carbonyl]-4-methyl-4-[4-(oxetan-3-yl)piperazin-1-yl]pent-2-enenitrile], the pH was 8.3 in data set [1]; 4.5 in data set [2] (50 mM Acetate, 0 hr); 4.5 in data set [2] (50 mM Acetate, 24 hr).
On to `CC(C)(C=C(C#N)C(=O)N1CCCC(n2nc(-c3ccc(Oc4ccccc4)cc3F)c3c(N)ncnc32)C1)N1CCN(C2COC2)CC1.Cl` (centres unmarked) [HCl salt, 2-[3-[4-amino-3-(2-fluoro-4-phenoxy-phenyl)pyrazolo[3,4-d]pyrimidin-1-yl]piperidine-1-carbonyl]-4-methyl-4-[4-(oxetan-3-yl)piperazin-1-yl]pent-2-enenitrile: HCl crystalline salt Form A], for which, in data set [1] (Example 9, FIGS. 24A-C, water and buffers), the “solubility as compared with amorphous form and Compound (I) Form B” value is given as “significantly enhanced solubility”. In addition, the pH came out at 4.0 in data set [1]; 4.5 in data set [2] (50 mM Acetate, 0 hr); 4.4 in data set [2] (50 mM Acetate, 24 hr).
As to `CC(C)(C=C(C#N)C(=O)N1CCCC(n2nc(-c3ccc(Oc4ccccc4)cc3F)c3c(N)ncnc32)C1)N1CCN(C2COC2)CC1` (centres unmarked) [Methyl paraben co-crystal, 2-[3-[4-amino-3-(2-fluoro-4-phenoxy-phenyl)pyrazolo[3,4-d]pyrimidin-1-yl]piperidine-1-carbonyl]-4-methyl-4-[4-(oxetan-3-yl)piperazin-1-yl]pent-2-enenitrile], in data set [3], the “solid form after grinding (XRPD)” value is “retained its co-crystalline structure pattern with only a limited reduction in overall crystallinity”. Further, the “solid form after drying and compression (XRPD)” value in data set [4] is reported as “retained its co-crystalline structure pattern with only a limited reduction in overall crystallinity”. The “solid form after storage (XRPD)” value in data set [5] is “retained its crystalline structure”. For the same compound, the solubility at 3 h in data set [6] (pH 4.5 buffer, 25 °C, pH 4.5, aqueous buffer, thermodynamic from solid, 3 hour, single sample) was found to be 0.98 mg/mL. The solubility at 1 h in data set [6] (pH 4.5 buffer, 25 °C, pH 4.5, aqueous buffer, thermodynamic from solid, pH 4.5 buffer, 1 hour, 25° C., single sample, read-out: Solubility) came to 0.65 mg/mL; in data set [6] (pH 4.5 buffer, 25 °C, pH 4.5, aqueous buffer, thermodynamic from solid, pH 4.5 buffer, 1 hour, 25° C., read-out: Average Solubility), 0.65 mg/mL. The compound further showed a Solubility in data set [6] (setting [9]) of 0.64 mg/mL. Further, the pH in data set [6] (setting [9]) is 4.6; in data set [6] (pH 4.5 buffer, 3 hour, 25° C., single sample), 4.7 and 4.6; in data set [6] (pH 4.5 buffer, 24 hour, 25° C., single sample) it was 4.7; in data set [6] (pH 6.8 buffer, 1 hour, 25° C., single sample), 6.8; in data set [6] (pH 6.8 buffer, 3 hour, 25° C., single sample) it was 6.8; in data set [6] (pH 6.8 buffer, 24 hour, 25° C., single sample), 6.9 and 6.8. Besides, in data set [6] (solid form stability after solubility test), the “XRPD pattern post-solubility analysis” value is recorded as “no change in the pattern”. In addition, the “water absorbed (hygroscopicity)” value in data set [7] (between 0 and 90% RH) was determined as 2.3 % w/w. For the same compound, the “XRPD pattern after GVS analysis, static storage conditions, grinding and compression studies, and kinetic solubility analysis” value in data set [7] (solid form stability) is given as “remained the same XRPD pattern”.
In the case of `CC(C)(C=C(C#N)C(=O)N1CCCC(n2nc(-c3ccc(Oc4ccccc4)cc3F)c3c(N)ncnc32)C1)N1CCN(C2COC2)CC1.O=C(O)C(=O)O` (centres unmarked) [Oxalate salt, 2-[3-[4-amino-3-(2-fluoro-4-phenoxy-phenyl)pyrazolo[3,4-d]pyrimidin-1-yl]piperidine-1-carbonyl]-4-methyl-4-[4-(oxetan-3-yl)piperazin-1-yl]pent-2-enenitrile: oxalate crystalline salt hydrate Form A], the pH worked out at 2.9 in data set [1]; 4.5 in data set [2] (50 mM Acetate, 0 hr); 4.27 in data set [2] (50 mM Acetate, 24 hr); 4.5 in data set [2] (100 mM Acetate, 0 hr); 4.5 in data set [2] (100 mM Acetate, 24 hr).
As for `CC(C)(C=C(C#N)C(=O)N1CCCC(n2nc(-c3ccc(Oc4ccccc4)cc3F)c3c(N)ncnc32)C1)N1CCN(C2COC2)CC1.O=C(O)/C=C\C(=O)O` (centres unmarked) [Maleate, 2-[3-[4-amino-3-(2-fluoro-4-phenoxy-phenyl)pyrazolo[3,4-d]pyrimidin-1-yl]piperidine-1-carbonyl]-4-methyl-4-[4-(oxetan-3-yl)piperazin-1-yl]pent-2-enenitrile: maleate crystalline salt Form A], the pH in data set [1] is listed as 3.5; in data set [2] (50 mM Acetate, 0 hr), 4.5; in data set [2] (50 mM Acetate, 24 hr), 4.0; in data set [2] (100 mM Acetate, 0 hr), 4.5; in data set [2] (100 mM Acetate, 24 hr), 4.5.
With `CC(C)(C=C(C#N)C(=O)N1CCCC(n2nc(-c3ccc(Oc4ccccc4)cc3F)c3c(N)ncnc32)C1)N1CCN(C2COC2)CC1` (centres unmarked) [Compound (I) Form B, 2-[3-[4-amino-3-(2-fluoro-4-phenoxy-phenyl)pyrazolo[3,4-d]pyrimidin-1-yl]piperidine-1-carbonyl]-4-methyl-4-[4-(oxetan-3-yl)piperazin-1-yl]pent-2-enenitrile], in data set [3] (listed as Form B crystalline form of Compound (I)), the “solid form after grinding (XRPD)” value was “became amorphous after grinding”. Also, the pH in data set [1] is given as 7.8; in data set [2] (50 mM Acetate, 0 hr), 4.5; in data set [2] (50 mM Acetate, 24 hr) it was 4.5. For the same compound, the solubility at 15 min is 20 to 100 mg/mL (≈ 30 to 150 mM) in data set [8] (4-Methyl-2-pentanone (MIBK)); over 100 mg/mL in data set [8] (Acetone); 20 to 100 mg/mL (≈ 30 to 150 mM) in data set [8] (Acetonitrile (MeCN)); under 20 mg/mL in data set [8] (Cyclohexane); 20 to 100 mg/mL (≈ 30 to 150 mM) in data set [8] (Cyclohexanone); over 100 mg/mL in data set [8] (Dichloromethane (DCM)). The solubility at 15 min was 20 to 100 mg/mL (≈ 30 to 150 mM) in data set [8] (Dimethyl carbonate (DMC)); 20 to 100 mg/mL (≈ 30 to 150 mM) in data set [8] (Ethyl acetate (EtOAc)); under 20 mg/mL in data set [8] (Isopropyl ether (IPE)); over 100 mg/mL in data set [8] (Tetrahydrofuran (THF)); under 20 mg/mL in data set [8] (Toluene); under 20 mg/mL in data set [8] (t-Butyl Methyl Ether (MTBE)). In data set [2] (50 mM acetate buffer, pH 4.5, aqueous buffer, thermodynamic from solid, 50 mM Acetate, 1 hr), this compound returned a solubility at 1 h of 1.7 mg/mL (≈ 2.55 mM).

In general, solubility refers to how much of the substance goes into solution per volume. Broadly, the Solubility is the concentration that dissolves in the medium under given conditions. Higher therefore signals a readily soluble substance.
